Measurements taken from patent US6498243B1, “Epimorphin antagonist and process for producing it” (Sumitomo Electric Industries, Ltd., priority 1996, dated 2002).

Columns and labels:
Type in all cases: cell-based
[1] = system: cell strain C3H/10T1/2clone8; experiment: Cell adhesion to coated dishes (O.D. at 260 nm of bound cells); conditions: one hour; for cell adhesion compared with modified epimorphins: coated dishes, C3H/10T1/2clone8 cells; for O.D. at 260 nm (number of the cells bound to the dishes, indicator of cell adhesion): specimen coated on suspension culture dishes, C3H/10T1/2clone8 cells in DH medium with 20 mg/ml bovine serum albumin, control (untreated) 0.0194
Text: The polypeptides A, B and C of the present invention obtained in Example 1, and the modified epimorphins (fragment (123) and fragment (2), each having the same cell adhesion capacity as that of natural type epimorphin) were coated on suspension culture medium dishes. After drying, the dishes were washed once with 8M urea/lysis buffer. Then, the dishes were washed 5 times with PBS^−, and the cell strain C3H/10T1/2clone8 (Dainippon Pharmaceutical Co., Ltd., 08-226) was sprinkled on the dishes using D-MEM/F-12 culture medium (GIBCO BRL, 12400-024; hereinafter called “DH medium”) containing 20 mg/ml bovine serum albumin (SIGMA, A-7030). One hour later, the dishes were washed 3 times with PBS^−, and then the cells were collected using 0.5N NaOH. The O.D. at 260 nm was measured to determine the number of the cells bound to the dishes. The cell count was used as an indicator of the cell adhesion of each specimen. The O.D.'s found were 1.5237 for polypeptide A, 1.4251 for polypeptide B, 1.4697 for polypeptide C, 1.4959 for fragment (123), 1.4478 for fragment (2), and 0.0194 for control (untreated).

[2] = system: hair follicle morphogenetic action of epimorphin on a maxillary skin; experiment: Inhibitory action on morphogenesis of maxillary skin (hair follicle), organ culture; conditions: 0.35 mg/ml in DH medium; ICR mouse fetal maxillary skin (13 days of gestation); 3 days of culture; 5% CO2 at 37° C.
Description: (§1) A maxillary skin was removed from the fetus of the ICR pregnant mouse (Nippon Charles River, 13 days of gestation) under a stereoscopic microscope. The maxillary skin taken was placed on Nuclepore membrane filter (SN 110419) floated on a culture medium (DH medium, or 0.35 mg/ml polypeptide A-containing DH medium). Organ culture was performed in 5% CO2 at 37° C. to investigate the effect of polypeptide A on the morphogenesis of the hair follicle. […] This manner of inhibition of morphogenesis was exactly the same as in treatment with MC-1, i.e., antibodies inhibiting the function of epimorphin.

[3] = system: morphogenetic action of epimorphin on a pulmonary primordium; experiment: Inhibitory action on morphogenesis of bronchus, organ culture of pulmonary primordium; conditions: 0.35 mg/ml in DH medium; ICR mouse fetal pulmonary primordium (12 days of gestation); 3 days of culture; 5% CO2 at 37° C.
Description: as §1, with “pulmonary primordium” for “maxillary skin”, “12” for “13”, “bronchus.” for “hair follicle.”

Substance	cell adhesion compared with modified epimorphins [1]	O.D. at 260 nm (number of the cells bound to the dishes, indicator of cell adhesion) [1]	morphogenesis of hair follicles [2]	morphogenesis of the bronchus [3]
polypeptide C: 41 amino acids, 1st (N-terminal) to 41st of the functional domain (SEQ ID NO: 8) of natural type mouse epimorphin (NGNRTSVDLRIRRTQHSVLSRKFVDVMAEYNEAQILFRERS; listed as Mus musculus)	cell adhesion comparable to that of the modified epimorphins	1.4697		
polypeptide B: 39 amino acids, 1st (N-terminal) to 39th of the functional domain (SEQ ID NO: 8) of natural type mouse epimorphin (NGNRTSVDLRIRRTQHSVLSRKFVDVMAEYNEAQILFRE; listed as Mus musculus)	cell adhesion comparable to that of the modified epimorphins	1.4251		
polypeptide A: 19 amino acids, 1st (N-terminal) to 19th of the functional domain (SEQ ID NO: 8) of natural type mouse epimorphin, chemically synthesized (NGNRTSVDLRIRRTQHSVL; listed as Mus musculus)	cell adhesion comparable to that of the modified epimorphins	1.5237	markedly inhibited	markedly inhibited
